From patent EP3033433B1, “DETECTION OF ORGANOPHOSPHATE RESISTANCE IN CRUSTACEANS” (priority 2013, dated 2015)
≈ marks a conversion by molar mass, not a printed value. Like-named read-outs stand apart in the source and are kept apart here.

Tests used:
[1] = system: sea lice (L. salmonis); assay: Bioassay of sea lice strains' sensitivity to azamethiphos (exposure to increasing concentrations); assay type: in vivo; settings: Lepeophtheirus salmonis
Description: (§1) The parasites had to be tested by a bioassay method, i.e. exposure to increasing concentrations of the agent to see how much they tolerated. As no bioassay method for salmon lice sensitivity towards azamethiphos was published, an unpublished protocol had to be used, with necessary adaptations. To be on the safe side, small scale laboratory treatments with fish infected with parasites containing only the wild-type enzyme versus fish infected with parasites containing the mutation were also successfully performed and confirmed the bioassay results.
The sensitivity of the strains analyzed was tested by traditional bioassays and small scale treatments (Helgesen et al., 2013). The history of the strains were LSAlta: Sampled 2010, inbred for approx. 10 generations. Fully sensitive to all agents LSBjugn: Sampled 2008, inbred for approx. 15 generations. Moderately resistant to azamethiphos, pyrethroids and emamectin benzoate. LSGulen: Sampled in 2004, inbred for approx. 25 generations. Fully sensitive to all agents LSHitra: Sampled in 2011. Resistant towards azamethiphos (not tested for other agents). Inbred for approx. 7 generations. LSHitra-s: Subset of LSHitra where fish with parasites were treated with 100 ppb azamethiphos (Salmosan™) for 30 minutes in a 200 liter fibre-glass tank. The subset is the surviving parasites after treatment. LSVeso: Sampled in 2012 in the field (Otterøya) shortly after a full-scale treatment with azamethiphos in the farm. Only surviving parasites were sampled.

[2] = system: sea lice (L. salmonis); assay: Small scale laboratory treatment of fish infected with salmon lice; assay type: in vivo, Lepeophtheirus salmonis; settings: 100 ppb azamethiphos
Description: as §1
The strains were: LSAlta: Sampled 2010, inbred for approx. 10 generations. No history of insensivity towards azamethiphos. LSBjugn: Sampled 2008, inbred for approx. 15 generations. History of insensitivity towards azamethiphos. LSGulen: Sampled in 2004, inbred for approx. 25 generations. No history of insensivity towards azamethiphos. LSHitra: Sampled in 2011, inbred for approx. 7 generations. History of insensitivity towards azamethiphos. LSHitra-s: Subset of LSHitra where fish with parasites were treated with 100 ppb azamethiphos (Salmosan™) for 30 minutes in a 200 liter fibre-glass tank. The subset is the surviving parasites after treatment. […]
The sensitivity of the strains analyzed was tested by traditional bioassays and small scale treatments (Helgesen et al., 2013). […]

[3] = system: acetyl cholin esterase from sea lice (L. salmonis); settings: within 2 minutes, 0.01 µM azamethiphos, samples collected 2000 - 2002, cited from earlier work
[4] = molecular target: Phe371Tyr, Drosophila amino acid sequence (Drosophila melanogaster, UniProt P07140, F409Y); settings: Phe371Tyr mutant versus wild type enzyme; cited from earlier work

Compound | EC50 ([1]; strain LSAlta) | EC50 ([1]; strain LSBjugn, read-out: EC50) | EC50 ([1]; strain LSGulen, read-out: EC50) | EC50 ([1]; strain LSHitra, read-out: EC50) | EC50 ([1]; strain LSVeso, tested at only one concentration, read-out: EC50) | Treatment efficacy (%) mean ([2]; strain LSAlta (fully sensitive)) | Treatment efficacy (%) mean ([2]; strain LSHitra (resistant)) | acetyl cholin esterase inhibited ([3]; samples with bi-exponential decline rate (most likely heterozygot resistant), activity remained at this level) | enzyme activity inhibited ([3]; samples with mono-exponential decline rate (most likely wild type)) | decrease the sensitivity of the enzyme [4]
COP(=O)(OC)SCn1c(=O)oc2cc(Cl)cnc21 [azamethiphos, S-[(6-Chloro-2-oxo[1,3]oxazolo[4,5-b]pyridin-3(2H)-yl)methyl]O,O-dimethyl phosphorothioate] | 2.1 ng/mL | 4.5 ng/mL (≈ 0.0139 µM) | 1.8 ng/mL (≈ 0.00554 µM) | 60 ng/mL (≈ 0.185 µM) | > 100 ng/mL | 100% | 50% | approx. 80% | inhibited completely | 
CCOP(=O)(OCC)Oc1ccc([N+](=O)[O-])cc1 [paraoxon] |  |  |  |  |  |  |  |  |  | 200 fold
